Key:
Type in all cases: cell-based
[1] = test system: Human esophageal cancer cell TE-1; assay: CCK-8 cell proliferation assay, TE-1; conditions: TE-1 cells, 72 hrs with drug, CCK-8, OD 450 nm
Description: (§1) The effect of samples on the proliferation of human tumor cells in vitro was determined by CCK-8 cell proliferation assay.
(§2) The cells were assayed through a method including the following steps: • 1) The cells were digested, counted, and prepared into a cell suspension in a corresponding culture medium (Table 1) (5×10^4 cells/ml for CFPAC-1 and RPMI 8226, and 3.5×10^4 cells/ml for rest cells). The cell suspension was added to each well of a 96-well plate in 100 μl/well. • 2) Then the 96-well plate was incubated for 24 hrs in an incubator at 37° C. and 5% CO2. • 3) The drug was diluted with the culture medium to the required working concentration. 100 μl of the corresponding drug containing medium was added to each well.

[2] = test system: Human multiple myeloma cell RPMI 8226; assay: CCK-8 cell proliferation assay, RPMI 8226; conditions: RPMI8226 cells, 72 hrs with drug, CCK-8, OD 450 nm
Description: as §1, §2

[3] = test system: Human colon cancer cell HCT-116; assay: CCK-8 cell proliferation assay, HCT-116; conditions: HCT116 cells, 72 hrs with drug, CCK-8, OD 450 nm
Description: as §1, §2

[4] = test system: Human hepatoma cell HepG2; assay: CCK-8 cell proliferation assay, HepG2; conditions: HepG2 cells, 72 hrs with drug, CCK-8, OD 450 nm
Description: as §1, §2

[5] = test system: Human gastric cancer cell MKN45; assay: CCK-8 cell proliferation assay, MKN45; conditions: MKN-45 cells, 72 hrs with drug, CCK-8, OD 450 nm
Description: as §1, §2

[6] = test system: Human lung adenocarcinoma cell A549; assay: CCK-8 cell proliferation assay, A549; conditions: A549 cells, 72 hrs with drug, CCK-8, OD 450 nm
Description: as §1, §2

[7] = test system: Human pancreatic cancer cell CFPAC-1; assay: CCK-8 cell proliferation assay, CFPAC-1; conditions: CFPAC-1 cells, 72 hrs with drug, CCK-8, OD 450 nm
Description: as §1, §2

Row | IC50 [1] [nM] | IC50 [2] [nM] | IC50 [3] [nM] | IC50 [4] [nM] | IC50 [5] [nM] | IC50 [6] [nM] | IC50 [7] [nM] | Compound
1 | 74 | 29 | 55 | 57 | 42 | 35 | 31 | N#CN=C(NCCCCCC1CCN(C(=O)c2[nH]ccc2F)C1)Nc1ccncc1 (centres unmarked) [BSS-PC049, 2-cyano-1-(5-(1-(3-fluoro-2-pyrrolylformyl)pyrrolidine-3-yl)pentyl)-3-(4-pyridinyl)guanidine]
2 | 57 | 29 | 52 | 68 | 61 | 26 | 25 | N#CN=C(NCCCCCC1CCN(C(=O)c2ccco2)C1)Nc1ccncc1 (centres unmarked) [BSS-PC032, 2-cyano-1-(5-(1-(furoyl)pyrrolidine-3-yl)pentyl)-3-(4-pyridinyl)guanidine]
3 | 57 | 28 | 101 | 93 | 72 | 48 | 38 | N#CN=C(NCCCCCN1CCN(C(=O)c2ccco2)CC1)Nc1ccnc(F)c1 [BSS-PC013]
4 | 96 | 29 | 55 | 91 | 72 | 36 | 27 | N#CN=C(NCCCCCN1CCN(C(=O)c2ccco2)CC1)Nc1ccncc1 [BSS-PC007, 2-cyano-1-(5-((1-furoyl)piperazine-4-yl)pentyl)-3-(4-pyridinyl)guanidine]
5 | 62 | 42 | 75 | 83 | 64 | 66 | 51 | N#CN=C(NCCCCCCC1CCN(C(=O)c2ccco2)C1)Nc1cc(Cl)nc(Cl)c1 (centres unmarked) [BSS-PC080]
6 | 107 | 38 | 89 | 101 | 59 | 55 | 51 | N#CN=C(NCCCCCN1CCN(C(=O)c2ccc[nH]2)CC1)Nc1ccncc1 [BSS-PC008, 2-cyano-1-(5-(1-(2-pyrrolylformyl)piperazine-4-yl)pentyl)-3-(4-pyridinyl)guanidine]

The next lines start with the molecule.

Row | Compound | IC50 [1] [nM] | IC50 [2] [nM] | IC50 [3] [nM] | IC50 [4] [nM] | IC50 [5] [nM] | IC50 [6] [nM] | IC50 [7] [nM]
7 | COc1cccc(OC)c1C(=O)N1CCC(CCCCCCNC(=NC#N)Nc2ccncc2)C1 (centres unmarked) [BSS-PC055, 2-cyano-1-(6-(1-(2,6-dimethoxybenzoyl)pyrrolidine-3-yl)hexyl)-3-(4-pyridinyl)guanidine] | 90 | 41 | 82 | 88 | 61 | 50 | 47
8 | N#CN=C(NCCCCCCC1CCN(C(=O)c2ccc[nH]2)C1)Nc1ccncc1 (centres unmarked) [BSS-PC056, 2-cyano-1-(6-(1-(2-pyrrolylformyl)pyrrolidine-3-yl)hexyl)-3-(4-pyridinyl)guanidine] | 42 | 33 | 73 | 39 | 39 | 47 | 44
9 | N#CN=C(NCCCCCC1CCN(C(=O)c2ccccc2)C1)Nc1cccnc1 (centres unmarked) [BSS-PC044, 2-cyano-1-(5-((1-benzoyl)pyrrolidine-3-yl)pentyl)-3-(3-pyridinyl)guanidine] | 34 | 20 | 40 | 42 | 53 | 41 | 38
10 | N#CN=C(NCCCCCCC1CCN(C(=O)c2cccs2)C1)Nc1cccnc1 (centres unmarked) [BSS-PC060, 2-cyano-1-(6-(1-(2-thienylformyl)pyrrolidine-3-yl)hexyl)-3-(3-pyridinyl)guanidine] | 85 | 38 | 97 | 101 | 78 | 31 | 31
11 | N#CN=C(NCCCCCC1CCN(C(=O)c2cc3ccccc3o2)C1)Nc1ccncc1 (centres unmarked) [BSS-PC047, 2-cyano-1-(5-(1-(2-benzofurylformyl)pyrrolidine-3-yl)pentyl)-3-(4-pyridinyl)guanidine] | 68 | 42 | 63 | 79 | 55 | 66 | 50
